Publication PMC11111408, “Concurrent inhibition of oncogenic and wild-type RAS-GTP for cancer therapy” (Nature, 2024)
Values joined by “and” are separate entries in the source; they are usually repeats but may differ in a detail not shown here. Identical values can stand only once.

What was measured:
[1] = tested on: KRAS^G12X PDAC, CRC and NSCLC xenograft models; experiment: Panel of 15 KRAS^G12X CDX and PDX xenograft models; format: in vivo, mouse; details: for % Tumor Volume Change: 10 mg/kg po qd, 10 mg/kg
Description: Xenograft studies were conducted at GenenDesign, Pharmaron, Wuxi AppTec, the laboratory of P. Lito, and the laboratory of C. Ambrogio. […] All procedures related to animal handling, care and treatment were conducted in compliance with all applicable regulations and guidelines of the relevant Institutional Animal Care and Use Committee (IACUC). […] Experimental details are supplied in the Supplementary Methods.

[2] = tested on: DUSP6 mRNA in NCI-H441 xenograft tumours; experiment: In vivo pharmacodynamic analysis by DUSP6 qPCR in NCI-H441 CDX tumours; set-up: species or system mouse; details: for % inhibition of DUSP6 vs control: single dose, tumor, individual animals
Description: RNA extraction and analysis of DUSP6 levels by in tumour tissue were performed as previously described.

[3] = molecular target: KRAS^Q61H (Homo sapiens, UniProt P01116+P62937, Q61H); experiment: Cellular RAS–RAF (CRAF RBD) disruption, nano-BRET in U2OS cells; format: cell-based; set-up: expressed in transfected cells; host or cells: U2OS or U2OS PPIA-KO; details: (95% CI)
Text: (§1) KRAS4B, or other small GTPases, containing the indicated mutations were cloned in pNLF-N or pHTN plasmids for expression with an N-terminal nanoluciferase or HaloTag fusion, respectively. […] The following day, the cells were collected by Trypsin and reseeded in a white tissue culture-treated 96-well plate in OptiMem phenol red-free medium (Gibco) containing 4% FBS and a 1:1,000 dilution of NanoBRET 618 HaloTag ligand (Promega). For endpoint concentration response curves, vivazine nanoluciferase substrate was added to 1× concentration in OptiMem phenol red-free medium with 4% FBS. Varying concentrations of inhibitor were added and incubated for 1 or 4 h before the nano-BRET signal was measured on a Perkin Elmer Envision plate reader. For kinetic assays, endurazine nanoluciferase substrate was used in place of vivazine, and the plate was placed in a Cytation5 multi-mode reader pre-equilibrated to 37 °C and 5% CO2.

[4] = molecular target: KRAS^G12A (Homo sapiens, UniProt P01116+P62937, G12A); experiment: as above; format: cell-based; set-up: expressed in transfected cells; host or cells: U2OS or U2OS PPIA-KO; details: (95% CI)
Text: as §1

[5] = tested on: Capan-1 cells; experiment: Cellular ERK phosphorylation (pERK); format: cell-based; details: Homo sapiens; Capan-1 (KRAS^G12V PDAC); (95% CI)

CCn1c(-c2cc(N3CCN(C4CC4)CC3)cnc2[C@H](C)OC)c2c3cc(ccc31)-c1csc(n1)C[C@H](NC(=O)[C@H]1[C@@H]3COC[C@@H]31)C(=O)N1CCC[C@H](N1)C(=O)OCC(C)(C)C2 [RMC-7977]
% Tumor Volume Change ([1]; PDAC G12D, BALB/c nude mice, day 3, individual animals): 209.83% and 173.4%
% Tumor Volume Change ([1]; PDAC G12D, BALB/c nude mice, day 7, individual animals): 163.81% and 154.57%
% Tumor Volume Change ([1]; PDAC G12D, BALB/c nude mice, day 14, individual animals): 89.27% and 198.15%
% Tumor Volume Change ([1]; PDAC G12D, BALB/c nude mice, day 17, individual animals): 109.93% and 119.08%
% Tumor Volume Change ([1]; PDAC G12D, BALB/c nude mice, day 21, individual animals): 193.02% and 99.24%
% Tumor Volume Change ([1]; PDAC G12D, BALB/c nude mice, day 24, individual animals): 160.39% and 128.81%
% Tumor Volume Change ([1]; PDAC G12D, BALB/c nude mice, day 28, individual animals): 162.11% and 110.97%
% Tumor Volume Change ([1]; PSN-1, BALB/c nude mice, day 0, individual animals): 179% and 166%
% Tumor Volume Change ([1]; PSN-1, BALB/c nude mice, day 3, individual animals): 154% and 97%
% Tumor Volume Change ([1]; PSN-1, BALB/c nude mice, day 7, individual animals): 134% and 82%
% Tumor Volume Change ([1]; PSN-1, BALB/c nude mice, day 10, individual animals): 126% and 70%
% Tumor Volume Change ([1]; PSN-1, BALB/c nude mice, day 14, individual animals): 117% and 66%
% Tumor Volume Change ([1]; PSN-1, BALB/c nude mice, day 17, individual animals): 116% and 65%
% Tumor Volume Change ([1]; PSN-1, BALB/c nude mice, day 21, individual animals): 121% and 60%
% Tumor Volume Change ([1]; PSN-1, BALB/c nude mice, day 24, individual animals): 131% and 55%
% Tumor Volume Change ([1]; PSN-1, BALB/c nude mice, day 28, individual animals): 132%
median time to tumour doubling ([1]; treatment up to 90 days, Kaplan–Meier analysis): did not reach a median time to tumour doubling
EC50 ([2]; Mus musculus, NCI-H441, po, read-out: EC50, total tumour concentration versus DUSP6 inhibition): 130 nM
EC90 ([2]; Mus musculus, NCI-H441 CDX, single oral administration, read-out: EC90, tumour concentration versus DUSP6 inhibition): 1450 nM
RMC-7977 10 mg/kg po dusp6 ([2]; NCI-H441 CDX tumour DUSP6 mRNA, single oral 10 mg/kg, 1 h, individual replicates, 10 mg/kg): 34.819 and 101.252 and 98.4831
RMC-7977 25 mg/kg po dusp6 ([2]; NCI-H441 CDX tumour DUSP6 mRNA, single oral 25 mg/kg, 1 h, individual replicates, 25 mg/kg): 26.2056 and 15.6903 and 16.7583
suppression of tumour DUSP6 levels ([2]; NCI-H441 CDX, single oral dose of 10 mg kg^−1, at 8 h): 91%
% inhibition of DUSP6 vs control ([2]; 8h, 1 mg/kg): 63.5% and 36.8% and 52.6%
% inhibition of DUSP6 vs control ([2]; 8h, 5 mg/kg): 53.7% and 91.7% and 1.5%
% inhibition of DUSP6 vs control ([2]; 8h, 10 mg/kg): 95.7% and 96.4% and 96.3% and 93.6937% and 85.7607% and 93.075%
% inhibition of DUSP6 vs control ([2]; 8h, 25 mg/kg): 95.995% and 81.4698% and 87.9011%
% inhibition of DUSP6 vs control ([2]; 24h, 1 mg/kg): 0% and 16.6%
% inhibition of DUSP6 vs control ([2]; 24h, 5 mg/kg): 6.8% and 29.4% and 61.8%
% inhibition of DUSP6 vs control ([2]; 24h, 10 mg/kg): 89.7% and 90.2% and 86.9% and 86.5288% and 67.1731% and 84.3639%
% inhibition of DUSP6 vs control ([2]; 24h, 25 mg/kg): 94.1768% and 94.6786% and 96.3905%
% inhibition of DUSP6 vs control ([2]; 48h, 1 mg/kg): 0% and 32.5%
% inhibition of DUSP6 vs control ([2]; 48h, 5 mg/kg): 3.9% and 33.4% and 22.2%
% inhibition of DUSP6 vs control ([2]; 48h, 10 mg/kg): 72.3% and 74.6% and 69.6% and 56.232% and 64.817% and 89.3572%
% inhibition of DUSP6 vs control ([2]; 48h, 25 mg/kg): 81.914% and 86.388% and 94.0545%
% inhibition of DUSP6 vs control ([2]; 72h, 5 mg/kg): 0% and 11.9%
% inhibition of DUSP6 vs control ([2]; 72h, 10 mg/kg): 0.2% and 45.2% and 48.1% and 87.4744% and 67.1731%
% inhibition of DUSP6 vs control ([2]; 72h, 25 mg/kg): 87.2112% and 72.4915% and 81.7249%
EC50 [3]: 17.2 nM
EC50 [4]: 30.3 nM
EC50 [5]: 0.421 nM
